Legend:
[1] = Fluid (supercritical or subcritical phases), isochoric method
[2] = molar heat capacity at constant volume; settings: Fluid (supercritical or subcritical phases), Vacuum adiabatic calorimetry

F/C=C/C(F)(F)F [trans-1,3,3,3-tetrafluoropropene]
Settings	mass density, [1] [kg/m3]	molar heat capacity at constant volume, [2] [J/K/mol]
270.15 K, 5540 kPa	1266.6	107.31
275.15 K, 7679 kPa	1266.2	107.2
280.15 K, 9813 kPa	1265.7	108
285.15 K, 11937 kPa	1265.3	107.88
290.15 K, 14055 kPa	1264.9	107.43
295.15 K, 2684 kPa	1185	110.39
295.15 K, 16163 kPa	1264.4	107.2
300.15 K, 4324 kPa	1184.7	111.19
305.15 K, 5963 kPa	1184.3	111.42
310.15 K, 7598 kPa	1184	112.22
315.15 K, 9231 kPa	1183.6	111.99
320.15 K, 10858 kPa	1183.3	112.9
325.15 K, 12483 kPa	1182.9	112.45
330.15 K, 14103 kPa	1182.5	113.13
335.15 K, 3368 kPa	1048.2	122.82
335.15 K, 15720 kPa	1182.2	111.99
340.15 K, 4423 kPa	1047.9	121.57
345.15 K, 5477 kPa	1047.7	121.91
350.15 K, 6529 kPa	1047.4	121
355.15 K, 7582 kPa	1047.1	119.97
360.15 K, 8633 kPa	1046.9	118.83
365.15 K, 9684 kPa	1046.6	118.49
370.15 K, 10734 kPa	1046.3	118.95
375.15 K, 11784 kPa	1046.1	119.06
380.15 K, 12833 kPa	1045.8	120.88
385.15 K, 4344 kPa	717.5	195.81
385.15 K, 13882 kPa	1045.6	121
390.15 K, 4695 kPa	717.4	192.84
390.15 K, 14930 kPa	1045.3	120.43
395.15 K, 5051 kPa	717.3	190.11
395.15 K, 15976 kPa	1045	122.14
400.15 K, 5410 kPa	717.1	185.43
405.15 K, 5772 kPa	717	181.21
410.15 K, 6137 kPa	716.9	176.31
415.15 K, 6503 kPa	716.8	174.37
420.15 K, 6872 kPa	716.7	171.18
425.15 K, 7243 kPa	716.6	167.53

— the NIST ThermoML archive (doi:10.1021/je101209e)
